Experimental data published in BindingDB's records for doi:10.1021/jm00046a026 (Virginia Commonwealth University, 1994).
pKi: −log10 of the molar value.

Columns and labels:
[1] = Inhibition against sigma receptor using displacement of 3 nM [3H]pentazocine in homogenate of guinea pig brain cerebellum
[2] = Inhibition against delta receptor from displacement studies using 1.5 nM [3H]DPDPE in rhesus monkey cortex membrane
[3] = Inhibition against mu receptor from displacement studies using 0.5 nM [3H]-DAMGO in rhesus monkey cortex membrane
[4] = Inhibition against kappa receptor from displacement studies using 1.5 nM [3H]U-69593 in rhesus monkey cortex membrane

| SMILES | pKi [1] | pKi [2] | pKi [3] | pKi [4] |
| --- | --- | --- | --- | --- |
| CCN1CC[C@]2(C)c3cc(O)ccc3CC1[C@@H]2C [(6S,11R)-3-Ethyl-6,11-dimethyl-1,2,3,4,5,6-hexahydro-2,6-methano-benzo[d]azocin-8-ol] | 4.78 | 6.80 | 7.80 | 7.80 |
| CCCCCCCCCN1CC[C@]2(C)c3cc(O)ccc3CC1[C@H]2C [(6S,11S)-6,11-Dimethyl-3-nonyl-1,2,3,4,5,6-hexahydro-2,6-methano-benzo[d]azocin-8-ol] | 7.92 | 5.53 | 6.90 | 5.64 |
| CCCCCN1CC[C@]2(C)c3cc(O)ccc3CC1[C@@H]2C [(6S,11R)-6,11-Dimethyl-3-pentyl-1,2,3,4,5,6-hexahydro-2,6-methano-benzo[d]azocin-8-ol] | – | 7.01 | 7.82 | 7.64 |
| CCCCN1CC[C@]2(C)c3cc(O)ccc3CC1[C@@H]2C [(6S,11R)-3-Butyl-6,11-dimethyl-1,2,3,4,5,6-hexahydro-2,6-methano-benzo[d]azocin-8-ol] | 6.98 | 7.11 | 8.47 | 8.31 |
| CCCCCCN1CC[C@]2(C)c3cc(O)ccc3CC1[C@@H]2C [(6S,11R)-3-Hexyl-6,11-dimethyl-1,2,3,4,5,6-hexahydro-2,6-methano-benzo[d]azocin-8-ol] | 7.40 | 7.17 | 7.41 | 7.37 |
| CCCCN1CC[C@@]2(C)c3cc(O)ccc3CC1[C@H]2C [(6R,11S)-3-Butyl-6,11-dimethyl-1,2,3,4,5,6-hexahydro-2,6-methano-benzo[d]azocin-8-ol] | 8.22 | 5.15 | 5.91 | 6.11 |
| CCCCCCCCCN1CC[C@]2(C)c3cc(O)ccc3CC1[C@@H]2C [(6S,11R)-6,11-Dimethyl-3-nonyl-1,2,3,4,5,6-hexahydro-2,6-methano-benzo[d]azocin-8-ol] | 7.49 | 6.33 | 6.74 | 6.15 |
| CCCN1CC[C@@]2(C)c3cc(O)ccc3CC1[C@H]2C [(6R,11S)-6,11-Dimethyl-3-propyl-1,2,3,4,5,6-hexahydro-2,6-methano-benzo[d]azocin-8-ol] | 7.37 | 5.15 | 6.03 | 6.34 |
| C[C@H]1C2Cc3ccc(O)cc3[C@@]1(C)CCN2 [(6S,11R)-6,11-Dimethyl-1,2,3,4,5,6-hexahydro-2,6-methano-benzo[d]azocin-8-ol] | 5.17 | 6.35 | – | 6.95 |
| CCCN1CC[C@]2(C)c3cc(O)ccc3CC1[C@@H]2C [(6S,11R)-6,11-Dimethyl-3-propyl-1,2,3,4,5,6-hexahydro-2,6-methano-benzo[d]azocin-8-ol] | 6.13 | 7.43 | 8.82 | 8.70 |
| CCCCCCCCCCN1CC[C@]2(C)c3cc(O)ccc3CC1[C@@H]2C [(6S,11R)-3-Decyl-6,11-dimethyl-1,2,3,4,5,6-hexahydro-2,6-methano-benzo[d]azocin-8-ol] | 7.42 | 5.59 | 6.00 | 5.64 |
| CCCCCCCCN1CC[C@]2(C)c3cc(O)ccc3CC1[C@H]2C [(6S,11S)-6,11-Dimethyl-3-octyl-1,2,3,4,5,6-hexahydro-2,6-methano-benzo[d]azocin-8-ol] | 8.55 | 5.80 | 6.80 | 5.64 |
| CCCCCCCCCCN1CC[C@]2(C)c3cc(O)ccc3CC1[C@H]2C [(6S,11S)-3-Decyl-6,11-dimethyl-1,2,3,4,5,6-hexahydro-2,6-methano-benzo[d]azocin-8-ol] | 7.16 | – | 6.12 | 5.64 |
| CCCCCCCCN1CC[C@]2(C)c3cc(O)ccc3CC1[C@@H]2C [(6S,11R)-6,11-Dimethyl-3-octyl-1,2,3,4,5,6-hexahydro-2,6-methano-benzo[d]azocin-8-ol] | 7.46 | 6.94 | 7.23 | 7.11 |
| CCCCCCN1CC[C@@]2(C)c3cc(O)ccc3CC1[C@H]2C [(6R,11S)-3-Hexyl-6,11-dimethyl-1,2,3,4,5,6-hexahydro-2,6-methano-benzo[d]azocin-8-ol] | 8.64 | – | 6.50 | 5.64 |
| CCCCCCCN1CC[C@]2(C)c3cc(O)ccc3CC1[C@@H]2C [(6S,11R)-3-Heptyl-6,11-dimethyl-1,2,3,4,5,6-hexahydro-2,6-methano-benzo[d]azocin-8-ol] | 7.31 | 7.24 | 7.57 | 7.49 |
| C[C@@H]1C2Cc3ccc(O)cc3[C@]1(C)CCN2C [(6R,11S)-3,6,11-Trimethyl-1,2,3,4,5,6-hexahydro-2,6-methano-benzo[d]azocin-8-ol] | 5.88 | 5.15 | 5.86 | 5.42 |
| C[C@@H]1C2Cc3ccc(O)cc3[C@]1(C)CCN2 [(6R,11S)-6,11-Dimethyl-1,2,3,4,5,6-hexahydro-2,6-methano-benzo[d]azocin-8-ol] | 5.56 | 5.15 | 5.76 | 5.42 |
| CCN1CC[C@@]2(C)c3cc(O)ccc3CC1[C@H]2C [(6R,11S)-3-Ethyl-6,11-dimethyl-1,2,3,4,5,6-hexahydro-2,6-methano-benzo[d]azocin-8-ol] | 5.96 | 5.15 | – | 5.42 |
| CCCCCCCN1CC[C@]2(C)c3cc(O)ccc3CC1[C@H]2C [(6S,11S)-3-Heptyl-6,11-dimethyl-1,2,3,4,5,6-hexahydro-2,6-methano-benzo[d]azocin-8-ol] | 8.72 | 5.15 | 6.59 | 6.14 |
| C[C@H]1C2Cc3ccc(O)cc3[C@@]1(C)CCN2C [(6S,11R)-3,6,11-Trimethyl-1,2,3,4,5,6-hexahydro-2,6-methano-benzo[d]azocin-8-ol] | 4.74 | 6.82 | 8.38 | 7.77 |
| CCCCCN1CC[C@@]2(C)c3cc(O)ccc3CC1[C@H]2C [(6R,11S)-6,11-Dimethyl-3-pentyl-1,2,3,4,5,6-hexahydro-2,6-methano-benzo[d]azocin-8-ol] | – | 5.15 | 6.11 | 6.13 |
